“Also recorded” adds a separate entry of the source.
Tests used:
[1] = test system: pathological papillary muscles in rats (cardiomyopathy); test: Action potential in papillary muscles of rats with cardiomyopathy (L-thyrotoxin); assay type: cell-based, rat
From the text: (§1) Effect of I13 (μ mol/L) on estimates of action potential induced in
(§2) normal and pathological papillary muscles in rats.

[2] = test system: normal papillary muscles in rats; test: Action potential in normal papillary muscles in rats; assay type: cell-based, rat; settings: n=6, I13 concentration not given
From the text: as §1, §2

[3] = test system: rabbits; test: Electrically-induced ventricular fibrillation threshold (VFT) in rabbits; assay type: in vivo, rabbit; settings: for VFT Before: baseline
[4] = test system: pathological papillary muscles in rats (hypertrophy); test: Action potential in hypertrophic papillary muscles in rats (abdominal aorta occlusion); assay type: cell-based, rat
From the text: as §1, §2

[5] = test system: guinea pig papillary muscles; test: Action potential of guinea pig papillary muscles under anoxia, high K+ and acidosis; assay type: cell-based
From the text: Effect of I13 (μ mol/L) on estimates of action potential of guinea
papillary muscles under anoxia, high K^+ and acidosis

[6] = test system: Langendorff's perfused rat hearts; test: Lasting antiarrhythmic action after po administration, hearts removed and mounted on Langendorff's apparatus; assay type: in vivo; set-up: ke: unit not given beside the values
Protocol: 1, 3 and 6 hours after the administration of 100 mg/kg of I13 by p.o. to rats, the hearts were removed and mounted onto Langendorff's apparatus. […] (see FIG. 4)
FIG. 4. Influence of po I13 and mexiletine on the time course of reperfusion-induced arrhythmias in Langendorff's perfused rat hearts

[7] = test system: rabbits; test: APD 24 hours after AMI in rabbits; assay type: in vivo, rabbit
Protocol: 24 hours after AMI, APD is markedly shortened.

[8] = test system: normal papillary muscles of guinea pig; test: Action potential of normal papillary muscles of guinea pig; assay type: cell-based; settings: for APA (action potential amplitude) / APD20 / APD50 / APD90 / ERP (effective refractory period) / RP (resting potential) / Vmax: n=7
From the text: Effect of I13 on estimates of action potential of normal papillary

[9] = test system: left ventricular activity in rabbits; test: Monophasic action potential (MAP) recorded from left ventricle in rabbits; assay type: in vivo, rabbit
From the text: The effectiveness of I13 in lengthening APD is confirmed by the influence on monophasic action potential (MAP) recorded from the left ventricular activity in rabbits.

[10] = cardiomyopathy, n=5, I13 concentration not given
[11] = hypertrophy, n=5, I13 concentration not given
[12] = anoxia, high K+ and acidosis, I13 concentration not given

COc1ccc2c(c1OC)C[N+]1(Cc3ccc(Cl)cc3)CCc3cc4c(cc3C1C2)OCO4 (centres unmarked) [Compound I13, 7-(4-chlorobenzyl)-5,8,13,13a-tetrahydroberberine chloride]
Vmax in cardiomyopathy model ([1]; L-thyrotoxin, rats): completely inhibited | APA [1, 10]: 104 ± 7 mv | APD20 [1, 10]: 12 ± 3 ms | APD50 [1, 10]: 32 ± 4 ms | APD90 [1, 10]: 65 ± 5 ms | ERP [1, 10]: 66 ± 6 ms | RP [1, 10]: 81 ± 5 mv | Vmax [1, 10]: 160 ± 50 v/s | APA [2]: 108 ± 9 mv | APD20 [2]: 5 ± 1 ms | APD50 [2]: 15 ± 4 ms | APD90 [2]: 44 ± 9 ms | ERP [2]: 43 ± 8 ms | RP [2]: 83 ± 4 mv | Vmax [2]: 200 ± 50 v/s | VFT Before ([3]; intra-duodenal 4.5 mg/kg group): 5.8 ± 0.3 volt | VFT Before ([3]; intra-duodenal 15 mg/kg group): 5.2 ± 0.9 volt | VFT Before ([3]; iv 1.5 mg/kg group): 5.2 ± 0.6 volt | potency in elevating VFT relative to lidocaine ([3]; i.v.): ten times more potent than lidocaine | AUC (area under curve, VFT effect) ([3]; id 4.5 mg/kg): 48.1 | AUC (area under curve, VFT effect) ([3]; id 15 mg/kg): 83.7 | VFT After ([3]; intra-duodenal 4.5 mg/kg): 8.9 ± 0.4 volt | ΔVFT ([3]; intra-duodenal 4.5 mg/kg): 3.1 ± 0.4 volt | ΔVFT % ([3]; intra-duodenal 4.5 mg/kg): 53.0 ± 7.6% | VFT After ([3]; intra-duodenal 15 mg/kg): 9.9 ± 2.2 volt | ΔVFT ([3]; intra-duodenal 15 mg/kg): 4.8 ± 1.5 volt | ΔVFT % ([3]; intra-duodenal 15 mg/kg): 92.1 ± 19.5% | AUC (area under curve, VFT effect) ([3]; iv 1.5 mg/kg): 11.1 | VFT After ([3]; iv 1.5 mg/kg): 8.1 ± 1.1 volt | ΔVFT ([3]; iv 1.5 mg/kg): 2.8 ± 0.8 volt | ΔVFT % ([3]; iv 1.5 mg/kg): 54.4 ± 16.9% | AUC (area under curve, VFT effect) ([3]; iv 4.5 mg/kg): 14.4 | VFT After ([3]; iv 4.5 mg/kg): 8.8 ± 1.1 volt | ΔVFT ([3]; iv 4.5 mg/kg): 3.6 ± 0.6 volt | ΔVFT % ([3]; iv 4.5 mg/kg): 72.2 ± 9.7% | influence on APD in hypertrophic myocardium [4]: could not be further exaggerated; also recorded: no action on hypertrophic myocardium | Vmax in left ventricular hypertrophy ([4]; abdominal aorta occlusion, rats): completely inhibited | APA [4, 11]: 104 ± 4 mv | APD20 [4, 11]: 8 ± 2 ms | APD50 [4, 11]: 20 ± 4 ms | APD90 [4, 11]: 45 ± 5 ms | ERP [4, 11]: 45 ± 9 ms | RP [4, 11]: 81 ± 3 mv | Vmax [4, 11]: 210 ± 40 v/s | Vmax under anoxia, high K+ and acidosis [5]: lowered | RP ([5]; anoxia, high K+ and acidosis, I13 (μmol/L, concentration not given), n=8): 85 ± 2 mv | APA [5, 12]: 116 ± 2 mv | APD20 [5, 12]: 78 ± 13 ms | APD50 [5, 12]: 156 ± 20 ms | APD90 [5, 12]: 170 ± 21 ms | ERP [5, 12]: 186 ± 19 ms | Vmax [5, 12]: 190 ± 40 v/s | ke ([6]; 30 mg/kg po at 1 hr before experiment (FIG. 4)): 0.144 | ke ([6]; 100 mg/kg po at 1 hr before experiment (FIG. 4)): 0.556 | ke ([6]; 100 mg/kg po at 3 hr before experiment (FIG. 4)): 0.056 | ke ([6]; 100 mg/kg po at 6 hr before experiment (FIG. 4)): 0.037 | antiarrhythmic effects after washing isolated hearts ([6]; 1, 3 and 6 hours after p.o. 100 mg/kg, 30 min washing): persisted even after 30 minutes of washing | effect on APD shortening after AMI [7]: could be cancelled | influence on APA [8]: no influence | influence on RP [8]: no influence | influence on APD50 (printed ADP50) ([8]; 0.3 μmol/L): able to lengthen ADP50 | APA (action potential amplitude) ([8]; 0.3 μmol/L): 125 ± 3 mv | APD20 ([8]; 0.3 μmol/L): 88 ± 13 ms | APD50 ([8]; 0.3 μmol/L): 176 ± 29 ms | APD90 ([8]; 0.3 μmol/L): 201 ± 30 ms | ERP (effective refractory period) ([8]; 0.3 μmol/L): 201 ± 28 ms | RP (resting potential) ([8]; 0.3 μmol/L): 91 ± 1 mv | Vmax ([8]; 0.3 μmol/L): 260 ± 60 v/s | APA (action potential amplitude) ([8]; 1 μmol/L): 123 ± 3 mv | APD20 ([8]; 1 μmol/L): 86 ± 10 ms | APD50 ([8]; 1 μmol/L): 181 ± 27 ms | APD90 ([8]; 1 μmol/L): 208 ± 29 ms | ERP (effective refractory period) ([8]; 1 μmol/L): 207 ± 27 ms | RP (resting potential) ([8]; 1 μmol/L): 90 ± 1 mv | Vmax ([8]; 1 μmol/L): 250 ± 70 v/s | APA (action potential amplitude) ([8]; 3 μmol/L): 123 ± 3 mv | APD20 ([8]; 3 μmol/L): 84 ± 8 ms | APD50 ([8]; 3 μmol/L): 182 ± 23 ms | APD90 ([8]; 3 μmol/L): 211 ± 26 ms | ERP (effective refractory period) ([8]; 3 μmol/L): 213 ± 18 ms | RP (resting potential) ([8]; 3 μmol/L): 89 ± 3 mv | Vmax ([8]; 3 μmol/L): 217 ± 60 v/s | APA (action potential amplitude) ([8]; 10 μmol/L): 122 ± 3 mv | APD20 ([8]; 10 μmol/L): 80 ± 5 ms | APD50 ([8]; 10 μmol/L): 161 ± 28 ms | APD90 ([8]; 10 μmol/L): 206 ± 26 ms | ERP (effective refractory period) ([8]; 10 μmol/L): 211 ± 23 ms | RP (resting potential) ([8]; 10 μmol/L): 89 ± 1 mv | Vmax ([8]; 10 μmol/L): 180 ± 60 v/s | APA (action potential amplitude) ([8]; 30 μmol/L): 116 ± 5 mv | APD20 ([8]; 30 μmol/L): 58 ± 11 ms | APD50 ([8]; 30 μmol/L): 128 ± 19 ms | APD90 ([8]; 30 μmol/L): 158 ± 22 ms | ERP (effective refractory period) ([8]; 30 μmol/L): 166 ± 24 ms | RP (resting potential) ([8]; 30 μmol/L): 87 ± 3 mv | Vmax ([8]; 30 μmol/L): 140 ± 50 v/s | influence on APD50 and APD90 (printed ADP50, ADP90) ([8]; 1 to 3 μmol/L): prolonged | inhibition at 3 µM ([8]; Cavia porcellus, 3 μmol/L, isolated papillary muscles of guinea pigs, read-out: inhibition of Vmax): 20% | antiarrhythmic class properties ([8]; electrophysiological studies): properties of Ia, Ib and III | two-phase effect on APD ([8]; low vs high concentrations): lengthened at low concentrations and shortened at high concentrations | lengthening of APD (MAP) [9]: confirmed
